Measured values: patent US20080109040A1, “METHOD OF TREATING ARRHYTHMIAS” (priority 2002, published 2008)

System: patients with LQT3-ΔKPQ mutation
Assay: 8-hour intravenous ranolazine infusion in patients with hereditary long QT-syndrome LQT3-ΔKPQ
Format: in vivo, human
From the text: Subjects were drawn from the U.S. portion of the international LQTS Registry. Eligibility criteria for enrollment in the study were genotype confirmed LQT3-ΔKPQ mutation with QTc>0.47 sec, males or females age 18-55 years of age, and signed informed consent to participate in this study. Patients already taking beta-blocking medication were continued on the drug. Patients with an implanted pacemaker or defibrillator or those with prior cervical-thoracic sympathetic ganglionectomy were not excluded. Exclusion criteria included significant comorbility that would preclude the patient's safe participation in this study, pregnancy or women of child-bearing age not receiving appropriate contraceptive therapy with any other sodium-channel blocker, use of medications that inhibit CYP-3A4 hepatic enzymes, (including diltiazem or verapamil) and psycho-social problems that could compromise compliance with the protocol. Thirteen patients with the LQT3-ΔKPQ mutation from two unrelated families met the eligibility criteria without exclusion, and of eight contacted patients five agreed to participate in the study.
Each patient had clinical and laboratory assessment including ultrasound evaluation on Day-2. Baseline studies off drug began at 8:00 am on Day-1: 12-lead ECG recorded at 8:00 am and every 0.5 hour for 8 hours and then at 2, 4, and 16 hours thereafter; a continuous 12-lead Holter was recorded for 24 hours. The 8-hour infusion of intravenous ranolazine was started at 8:00 am on Day 1 with time-matched ECG recordings at the same times as on Day-1. The second echocardiogram was obtained just before completion of the 8-hour of ranolazine infusion on Day 1. Blood samples for plasma ranolazine concentrations were drawn at hourly intervals during the ranolazine infusion, and at 2, 4, and 16 hours following completion of ranolazine infusion on Day 1.
Five patients with LQT3-ΔKPQ mutation were prospectively investigated during 8-hour intravenous infusions of ranolazine with electrocardiographic and echocardiographic evaluation before and during ranolazine administration. Ranolazine was infused at a rate of 40 mg/hr for 3 hours, with doubling of the infusion rate during the subsequent 5 hours while obtaining hourly ranolazine blood levels.
Changes in electrocardiographic parameters from before to during ranolazine infusion were evaluated by time-matched, paired t-test analyses, with repeated measures analysis of variance (ANOVA) where appropriate. The primary pre-specified electrocardiographic QTc analysis utilized a mixed-effects linear model of the change from time-matched baseline in QTc during ranolazine infusion with a fixed effect for time and a random effect for subject. A linear regression equation relating ranolazine blood level to QTc was developed using an analysis of covariance with effects for ranolazine level, subject and the interaction of subject with ranolazine level. The echocardiographic analyses involved evaluation of baseline parameters relative to normal standards for the laboratory as well as statistical comparisons of change in specific quantitative parameters between baseline and the peak ranolazine infusion. Two-sided p-values<0.05 were considered significant.
12-lead ECGs and 24-hour 12-lead Holter ECGs were obtained to evaluate ventricular repolarization before, during, and after ranolazine infusion. The QT interval and the Fridericia corrected QT interval for heart rate (QTc) were measured according to standard criteria. QT was measured from the beginning of QRS complex to the end of T wave determined by an intersection of T wave and isoelectric line or to the nadir between T and U waves. U waves were not incorporated in the measurement of QT interval. Measurement of T-wave patterns included QT peak (ms), T-wave duration (ms), T peak-T end (ms), and T-wave amplitude (mv). The ECG parameters were measured on 3 consecutive beats in lead II, with lead aVF or V5 used if lead II was technically unsatisfactory. […]

[1] = peak ranolazine infusion vs baseline

Question: Which results are given for `COc1ccccc1OCC(O)CN1CCN(CC(=O)Nc2c(C)cccc2C)CC1` (racemic) [ranolazine, N-(2,6-dimethylphenyl)-4-[2-hydroxy-3-(2-methoxyphenoxy)propyl]-1-piperazineacetamide]?
Answer: QTc during ranolazine (8-hour iv infusion, baseline 558±55 ms): 532 ± 46 ms; Mean reduction in QTc from baseline (entire 8-hour iv ranolazine infusion, 5 patients): 26 ± 3 ms; Average slope of QTc vs. ranolazine plasma concentration (human, in vivo): −24 ms per 1000 ng/ml; Decrease in mitral E-wave deceleration time [1]: 18%; Increase in mitral E-wave velocity [1]: 27%; Shortening in left ventricular isovolumic relaxation time [1]: 15%; Adverse effects (study patients): No adverse effects
